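Five compound concentrations were applied to cells in 96-well plates for 48 hours; endpoints were derived by simple linear interpolation of the resulting dose-response curve. Here, GI50 denotes the concentration required for 50% inhibition of growth.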 Active and inactive are the calls of the source. Cut-off read from the data, not from the text of the source: active = GI50 up to about 1.1 µM and inactive = higher.
Columns and labels:
Assay in all cases: DTP human tumour cell line panel, 48 h
CCRF-CEM = system: CCRF-CEM
DU-145 = system: DU-145
MCF7 = system: MCF7
TK-10 = system: TK-10
K562 = system: K562
HCC 2998 = system: HCC 2998
SNB-75 = system: SNB-75
NCI-H226 = system: NCI-H226
SW-620 = system: SW-620
SK-MEL-5 = system: SK-MEL-5
EKVX = system: EKVX
RPMI-8226 = system: RPMI-8226
NCI-H23 = system: NCI-H23
UO-31 = system: UO-31
OVCAR-4 = system: OVCAR-4
ACHN = system: ACHN
SK-MEL-28 = system: SK-MEL-28
PC-3 = system: PC-3
DMS-114 = system: DMS-114
LXFL 529 = system: LXFL 529

CN(C)CCCNC(=O)c1cc(NC(=O)c2cc(NS(=O)(=O)c3ccc4c(c3)C(=O)c3ccccc3C4=O)cn2C)cn1C
GI50 (CCRF-CEM): 31.7 µM (inactive)
GI50 (DU-145): > 100 µM (inactive)
GI50 (MCF7): 31.8 µM (inactive)
GI50 (TK-10): > 100 µM (inactive)
GI50 (K562): 52.6 µM (inactive)
GI50 (HCC 2998): > 100 µM (inactive)
GI50 (SNB-75): > 100 µM (inactive)
GI50 (NCI-H226): > 100 µM (inactive)
GI50 (SW-620): 94.8 µM (inactive)
GI50 (SK-MEL-5): 29.2 µM (inactive)
GI50 (EKVX): > 100 µM (inactive)
GI50 (RPMI-8226): 21.5 µM (inactive)
GI50 (NCI-H23): > 100 µM (inactive)
GI50 (UO-31): > 100 µM (inactive)
GI50 (OVCAR-4): > 100 µM (inactive)
GI50 (ACHN): > 100 µM (inactive)
GI50 (SK-MEL-28): 86.5 µM (inactive)
GI50 (PC-3): > 100 µM (inactive)

OC(C#CCN1CCCC1)(c1ccccc1)c1ccccc1Cl (centres undefined)
GI50 (CCRF-CEM): 33.6 µM (inactive)
GI50 (DU-145): > 100 µM (inactive)
GI50 (MCF7): 17.9 µM (inactive)
GI50 (TK-10): 50.8 µM (inactive)
GI50 (K562): 30.8 µM (inactive)
GI50 (HCC 2998): 21.8 µM (inactive)
GI50 (SNB-75): 59.4 µM (inactive)
GI50 (NCI-H226): 80.7 µM (inactive)
GI50 (SW-620): 18.5 µM (inactive)
GI50 (SK-MEL-5): 17.7 µM (inactive)
GI50 (EKVX): 48.5 µM (inactive)
GI50 (RPMI-8226): 39.2 µM (inactive)
GI50 (NCI-H23): 37.3 µM (inactive)
GI50 (UO-31): 24.7 µM (inactive)
GI50 (OVCAR-4): 31 µM (inactive)
GI50 (ACHN): 23.9 µM (inactive)
GI50 (SK-MEL-28): 17.1 µM (inactive)
GI50 (PC-3): 27.8 µM (inactive)

C[C@H]1CC(=O)C[C@@H]2CC[C@@H]3[C@H](CC[C@]4(C)C(OC(=O)c5cccc6c(=O)c7ccccc7[nH]c56)CC[C@@H]34)[C@]21C (some centres undefined)
GI50 (CCRF-CEM): 23.8 µM (inactive)
GI50 (DU-145): 54.3 µM (inactive)
GI50 (MCF7): 62.5 µM (inactive)
GI50 (TK-10): 64.7 µM (inactive)
GI50 (K562): 23.6 µM (inactive)
GI50 (HCC 2998): 47 µM (inactive)
GI50 (SNB-75): 31.1 µM (inactive)
GI50 (NCI-H226): 28.2 µM (inactive)
GI50 (SW-620): 55.5 µM (inactive)
GI50 (SK-MEL-5): 16 µM (inactive)
GI50 (EKVX): 31.1 µM (inactive)
GI50 (RPMI-8226): 11.1 µM (inactive)
GI50 (NCI-H23): 30.6 µM (inactive)
GI50 (UO-31): 24.2 µM (inactive)
GI50 (OVCAR-4): 26.1 µM (inactive)
GI50 (ACHN): 34.4 µM (inactive)
GI50 (SK-MEL-28): 38.2 µM (inactive)
GI50 (PC-3): 14.8 µM (inactive)

N/N=c1/nc2n(c3ncccc13)C=CNN2
GI50 (CCRF-CEM): > 100 µM (inactive)
GI50 (DMS-114): > 100 µM (inactive)
GI50 (TK-10): > 100 µM (inactive)
GI50 (K562): > 100 µM (inactive)
GI50 (HCC 2998): > 100 µM (inactive)
GI50 (NCI-H226): > 100 µM (inactive)
GI50 (SW-620): > 100 µM (inactive)
GI50 (LXFL 529): > 100 µM (inactive)
GI50 (SK-MEL-5): > 100 µM (inactive)
GI50 (EKVX): > 100 µM (inactive)
GI50 (RPMI-8226): > 100 µM (inactive)
GI50 (NCI-H23): > 100 µM (inactive)
GI50 (ACHN): > 100 µM (inactive)
GI50 (SK-MEL-28): > 100 µM (inactive)

Cc1ccc(/C(=C\C(=O)C(=O)NC23CC4CC(CC(C4)C2)C3)Sc2ccccc2)cc1
GI50 (CCRF-CEM): 4.75 µM (inactive)
GI50 (DU-145): > 10 µM (inactive)
GI50 (MCF7): > 10 µM (inactive)
GI50 (TK-10): > 10 µM (inactive)
GI50 (K562): 4.76 µM (inactive)
GI50 (HCC 2998): > 10 µM (inactive)
GI50 (SNB-75): > 10 µM (inactive)
GI50 (NCI-H226): > 10 µM (inactive)
GI50 (SW-620): > 10 µM (inactive)
GI50 (SK-MEL-5): > 10 µM (inactive)
GI50 (EKVX): > 10 µM (inactive)
GI50 (RPMI-8226): 9.02 µM (inactive)
GI50 (NCI-H23): > 10 µM (inactive)
GI50 (UO-31): > 10 µM (inactive)
GI50 (OVCAR-4): 6.43 µM (inactive)
GI50 (ACHN): > 10 µM (inactive)
GI50 (SK-MEL-28): > 10 µM (inactive)
GI50 (PC-3): 4.31 µM (inactive)

COC1(OC)C[C@H](C)[C@@]23O[C@]24C2=CC(=O)C=CC2=N[C@H]3C#C/C=C\C#C[C@]14O
GI50 (CCRF-CEM): 0.044 µM (active)
GI50 (DU-145): 1.04 µM (active)
GI50 (MCF7): 0.276 µM (active)
GI50 (TK-10): 0.893 µM (active)
GI50 (K562): 0.359 µM (active)
GI50 (HCC 2998): 0.67 µM (active)
GI50 (SNB-75): 0.133 µM (active)
GI50 (NCI-H226): 0.7 µM (active)
GI50 (SW-620): 0.415 µM (active)
GI50 (SK-MEL-5): 0.323 µM (active)
GI50 (EKVX): 0.578 µM (active)
GI50 (RPMI-8226): 0.123 µM (active)
GI50 (NCI-H23): 0.411 µM (active)
GI50 (UO-31): 0.355 µM (active)
GI50 (OVCAR-4): 0.501 µM (active)
GI50 (ACHN): 0.259 µM (active)
GI50 (SK-MEL-28): 1.08 µM (active)
GI50 (PC-3): 0.753 µM (active)

CCOC1=NC(=O)CC(c2ccccc2)S1 (centres undefined)
GI50 (CCRF-CEM): 69.3 µM (inactive)
GI50 (K562): > 100 µM (inactive)
GI50 (HCC 2998): > 100 µM (inactive)
GI50 (NCI-H226): 27.8 µM (inactive)
GI50 (SW-620): > 100 µM (inactive)
GI50 (LXFL 529): > 100 µM (inactive)
GI50 (SK-MEL-5): > 100 µM (inactive)
GI50 (EKVX): > 100 µM (inactive)
GI50 (RPMI-8226): > 100 µM (inactive)
GI50 (UO-31): > 100 µM (inactive)
GI50 (OVCAR-4): > 100 µM (inactive)
GI50 (ACHN): > 100 µM (inactive)

O=S(=O)(O)C(CO)c1ccccc1.O=S(=O)(O)Cc1ccccc1 (centres undefined)
GI50 (CCRF-CEM): 19.6 µM (inactive)
GI50 (DU-145): > 100 µM (inactive)
GI50 (MCF7): > 100 µM (inactive)
GI50 (TK-10): > 100 µM (inactive)
GI50 (K562): > 100 µM (inactive)
GI50 (HCC 2998): > 100 µM (inactive)
GI50 (SNB-75): > 100 µM (inactive)
GI50 (NCI-H226): > 100 µM (inactive)
GI50 (SW-620): > 100 µM (inactive)
GI50 (SK-MEL-5): > 100 µM (inactive)
GI50 (EKVX): > 100 µM (inactive)
GI50 (RPMI-8226): > 100 µM (inactive)
GI50 (NCI-H23): > 100 µM (inactive)
GI50 (UO-31): > 100 µM (inactive)
GI50 (OVCAR-4): > 100 µM (inactive)
GI50 (ACHN): > 100 µM (inactive)
GI50 (SK-MEL-28): > 100 µM (inactive)
GI50 (PC-3): > 100 µM (inactive)
